We go through two compounds from PubChem BioAssay AID1963860 (Molecular Pharmacology Branch, DTP, NCI, 2024).

As a reminder, the IC50 is the midpoint of a concentration-inhibition curve. What is called viability, T/C is the result in the treated group divided by that in the control group, in per cent.

The experiment concerns CN0375-F725-PDC KRAS spheroid viability. In words: Anticancer human tumor CN0375-F725-PDC patient-derived colon carcinoma cell line growth inhibition [KRAS2]. The conditions noted are these: spheroids with HUVEC and MSC; for viability, T/C: stronger effect = lower value. A digest of the protocol:
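KRAS-mutant tumor cells were grown as spheroids with HUVEC endothelial cells and human MSCs as stroma. Targeted agents were tested alone and with KRAS pathway inhibitors. Doses started at or near clinical Cmax, or 10 microM, descending half-log.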
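Further: spheroids exposed to agents for 7 days.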

As for `COc1cc(Nc2ncc3c(n2)-c2ccc(Cl)cc2C(c2c(F)cccc2OC)=NC3)ccc1C(=O)O` + CNCc1ccccc1-c1csc(C(C)Nc2nc(C)nc3cc(OC)c(OC)cc23)c1, the IC50 runs as follows: (curve of first compound, second compound 0.1 µM) above 10 µM; (curve of first compound, second compound 0.316 µM) above 10 µM; (curve of first compound, second compound 1 µM) above 10 µM; (curve of first compound, second compound 3.16 µM) below 0.0316 µM; (curve of first compound, second compound 10 µM) below 0.0316 µM. The viability, T/C was 101% (second compound 0.1 µM, first compound 0.0316 µM); 95% (second compound 0.1 µM, first compound 0.1 µM); 93.5% (second compound 0.1 µM, first compound 0.316 µM); 90.8% (second compound 0.1 µM, first compound 1 µM); 89% (second compound 0.1 µM, first compound 3.16 µM); 75.9% (second compound 0.1 µM, first compound 10 µM). Besides, the viability, T/C was 96.8% (second compound 0.316 µM, first compound 0.0316 µM); 93.1% (second compound 0.316 µM, first compound 0.1 µM); 88.4% (second compound 0.316 µM, first compound 0.316 µM); 83.8% (second compound 0.316 µM, first compound 1 µM); 87.3% (second compound 0.316 µM, first compound 3.16 µM); 75.7% (second compound 0.316 µM, first compound 10 µM). For the same compound, the viability, T/C reads like this: (second compound 1 µM, first compound 0.0316 µM) 58.2%; (second compound 1 µM, first compound 0.1 µM) 54.7%; (second compound 1 µM, first compound 0.316 µM) 57.5%; (second compound 1 µM, first compound 1 µM) 61%; (second compound 1 µM, first compound 3.16 µM) 61.7%; (second compound 1 µM, first compound 10 µM) 48.4%. The viability, T/C is, setting by setting: (second compound 3.16 µM, first compound 0.0316 µM) 0.72%; (second compound 3.16 µM, first compound 0.1 µM) 0.93%; (second compound 3.16 µM, first compound 0.316 µM) 0.51%; (second compound 3.16 µM, first compound 1 µM) 0.58%; (second compound 3.16 µM, first compound 3.16 µM) 1.16%; (second compound 3.16 µM, first compound 10 µM) 0.38%. The viability, T/C reads like this: (second compound 10 µM, first compound 0.0316 µM) 0.31%; (second compound 10 µM, first compound 0.1 µM) 0.48%; (second compound 10 µM, first compound 0.316 µM) 0.55%; (second compound 10 µM, first compound 1 µM) 0.16%; (second compound 10 µM, first compound 3.16 µM) 0.24%; (second compound 10 µM, first compound 10 µM) 0.19%.

As to `CC(C)n1nc(-c2ccc3oc(N)nc3c2)c2c(N)ncnc21`, the viability, T/C (compound 0.000316 µM) is 97.5% [middle of 5 runs]; the viability, T/C (compound 0.001 µM) was 93.1% [middle of 5 runs]; the viability, T/C (compound 0.00316 µM) was 79% [middle of 5 runs]; the viability, T/C (compound 0.01 µM) is 70.7% [middle of 5 runs]; the viability, T/C (compound 0.0316 µM) is 55.5% [middle of 5 runs]; the viability, T/C (compound 0.1 µM) is 45.2% [middle of 5 runs]. Further, where the note is “curve of compound”, the IC50 was 64.7 nM [middle of 5 runs].
